These results are taken from patent US9738642B2, “Triazolopyridine ether derivatives and their use in neurological and pyschiatric disorders” (BRISTOL-MYERS SQUIBB COMPANY, priority 2013, dated 2017).

Each structure is given as a SMILES string. Counter-ions that a name gives are not always drawn.

The target in this assay is T1, human mGluR2 (Homo sapiens, UniProt Q14416).
T1 construct: expressed in transfected cells; host or cells: HEK293 clonal line
Put plainly: mGluR2 cAMP assay. It is filed as cell-based. The conditions noted are these: clonally expressed human mGluR2 in HEK293; 1 μM forskolin, 1 μM LY-341495, 30 min; CISBIO cAMP kit; read-out: EC50 (nM), activity in mGluR2 cAMP assay. How it is done: On the day of the assay, media was removed, cells washed with PBS, cells harvested and pelleted by centrifugation. Cell pellets were resuspended in stimulation buffer without forskolin and counted. […] A standard curve was created using a top concentration of cAMP of 1 μM in the stimulation buffer, 1:3 dilutions over 14 points in the absence of cells. […] In house software converted the fluorescence value ratios to units of cAMP concentration, which is then used to calculate % inhibition for each test compound. MGluR2 cAMP Assay Materials and Methods. […] Buffer without forskolin was used as a negative control. Solutions of D2 and cryptate detection reagents from the CISBIO dynamic cAMP kit (62AM4PEJ) were diluted 1:40 in lysis buffer. Lysis buffer consisted of 50 mM Phosphate Buffer pH 7.0, 800 mM Potassium Fluoride, 0.2% BSA, and 1.0% Triton. Assay reaction was terminated by addition of detection reagents in lysis buffer. One hour later, plates were read on a PE Viewlux. Data was extracted, and concentration response curves generated by fitting the data to a standard 4 parameter logistic equation from which EC50 values were determined.
Background: Changes in cAMP serve as a functional read-out for many G protein-coupled receptors.

T1 sequence (Q14416 19-872): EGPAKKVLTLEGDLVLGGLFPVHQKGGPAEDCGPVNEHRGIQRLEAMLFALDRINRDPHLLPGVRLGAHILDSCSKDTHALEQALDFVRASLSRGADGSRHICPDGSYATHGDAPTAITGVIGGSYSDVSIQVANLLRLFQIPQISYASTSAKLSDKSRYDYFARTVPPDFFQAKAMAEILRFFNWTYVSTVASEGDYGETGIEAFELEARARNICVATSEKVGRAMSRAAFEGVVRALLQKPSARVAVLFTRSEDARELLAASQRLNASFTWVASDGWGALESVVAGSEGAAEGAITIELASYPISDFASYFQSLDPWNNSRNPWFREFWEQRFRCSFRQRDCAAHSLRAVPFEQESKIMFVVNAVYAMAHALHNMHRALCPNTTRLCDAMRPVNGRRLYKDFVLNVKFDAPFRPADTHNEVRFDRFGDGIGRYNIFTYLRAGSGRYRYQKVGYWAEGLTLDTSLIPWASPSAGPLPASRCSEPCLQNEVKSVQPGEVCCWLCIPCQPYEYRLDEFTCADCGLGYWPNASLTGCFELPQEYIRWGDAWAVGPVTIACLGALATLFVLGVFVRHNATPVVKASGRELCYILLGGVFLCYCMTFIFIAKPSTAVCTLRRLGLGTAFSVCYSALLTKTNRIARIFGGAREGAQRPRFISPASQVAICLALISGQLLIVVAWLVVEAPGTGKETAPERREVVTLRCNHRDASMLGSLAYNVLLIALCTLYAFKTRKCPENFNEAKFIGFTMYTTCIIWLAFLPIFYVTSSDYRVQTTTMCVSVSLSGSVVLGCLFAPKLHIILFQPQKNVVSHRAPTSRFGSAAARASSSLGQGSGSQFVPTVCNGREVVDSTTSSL

`FC(F)(F)Oc1ccccc1[C@H]1C[C@@H]1COc1ccn2c(CC3CC3)nnc2c1C(F)(F)F` (single isomer, unassigned) [Example 41]: the EC50 (commonly the concentration giving half of the maximal effect) came out at 2.2 nM.

Regarding `FC(F)(F)Oc1ccccc1[C@@H]1C[C@H]1COc1ccn2c(CC3CC3)nnc2c1C(F)(F)F` (single isomer, unassigned) [Example 42], the EC50 came out at 1.9 nM.

Consider `Fc1ccc(C2CC2COc2ccn3c(CC4CC4)nnc3c2C(F)(F)F)cc1` (single isomer, unassigned) [Example 78], for which the EC50 came out at 2.6 nM.

Consider `Fc1ccc([C@@H]2C[C@H]2COc2ccn3c(CC4CC4)nnc3c2C(F)(F)F)cc1` (single isomer, unassigned) [Example 79], for which the EC50 worked out at 1.1 nM.

Take `CO[C@]1(c2ccc(F)cc2)CC[C@H](Oc2ccn3c(C4CC4(F)F)nnc3c2C(F)(F)F)CC1` (single isomer, unassigned) [Example 87, TFA salt]: the EC50 was determined as 61 nM.

Regarding `CO[C@]1(c2ccc(F)cc2)CC[C@H](Oc2ccn3c(C4CC4(F)F)nnc3c2C(F)(F)F)CC1` (single isomer, unassigned) [Example 88, TFA salt], the EC50 came to 3.1 nM.

Turning to `FC(F)(F)c1c(OCC2(c3ccccc3)CCCCC2)ccn2c(CC3CC3)nnc12` [Example 1, 3-(Cyclopropylmethyl)-7-((1-phenylcyclohexyl)methoxy)-8-(trifluoromethyl)-[1,2,4]triazolo[4,3-a]pyridine], the concentration for a half-maximal effect (EC50) stood at 1.8 nM.

Regarding `CC(C)(COc1ccn2c(CC3CC3)nnc2c1C(F)(F)F)c1ccc(Cl)cc1` [Example 2, 7-(2-(4-Chlorophenyl)-2-methylpropoxy)-3-(cyclopropylmethyl)-8-(trifluoromethyl)-[1,2,4]triazolo[4,3-a]pyridine], the EC50 came to 5.5 nM.

On to `N#Cc1c(OC[C@H]2C[C@@H]2c2ccc(F)cc2)ccn2c(CC3CC3)nnc12` [Example 3, 3-(Cyclopropylmethyl)-7-(((1S,2S)-2-(4-fluorophenyl)cyclopropyl)methoxy)-[1,2,4]triazolo[4,3-a]pyridine-8-carbonitrile], for which the EC50 was 11 nM.

Turning to `CC(C)(COc1ccn2c(CC3CC3)nnc2c1C(F)(F)F)c1ccc(F)cc1` [Example 6, 3-(Cyclopropylmethyl)-7-(2-(4-fluorophenyl)-2-methylpropoxy)-8-(trifluoromethyl)-[1,2,4]triazolo[4,3-a]pyridine], the EC50 is 11 nM.

Turning to `CC(C)(COc1ccn2c(CC(F)(F)F)nnc2c1C(F)(F)F)c1ccc(Cl)cc1` [Example 7, 7-(2-(4-Chlorophenyl)-2-methylpropoxy)-3-(2,2,2-trifluoroethyl)-8-(trifluoromethyl)-[1,2,4]triazolo[4,3-a]pyridine], the EC50 turned out to be 13 nM.

Regarding `CC(C)(COc1ccn2c(CC3CC3)nnc2c1C(F)(F)F)Oc1ccc(F)cc1` [Example 8, 3-(Cyclopropylmethyl)-7-(2-(4-fluorophenoxy)-2-methylpropoxy)-8-(trifluoromethyl)-[1,2,4]triazolo[4,3-a]pyridine], the EC50 amounted to 11 nM.

Regarding `CC(C)(COc1ccn2c(CC(F)(F)F)nnc2c1C(F)(F)F)Oc1ccc(F)cc1` [Example 11, 7-(2-(4-Fluorophenoxy)-2-methylpropoxy)-3-(2,2,2-trifluoroethyl)-8-(trifluoromethyl)-[1,2,4]triazolo[4,3-a]pyridine], the EC50 was 18 nM.

As for `CC(C)(COc1ccn2c(CC3CC3)nnc2c1C(F)(F)F)Oc1ccc(Cl)cc1` [Example 13, 7-(2-(4-Chlorophenoxy)-2-methylpropoxy)-3-(cyclopropylmethyl)-8-(trifluoromethyl)-[1,2,4]triazolo[4,3-a]pyridine], the EC50 was determined as 13 nM.

As for `CC(C)(COc1ccn2c(CC3CC3)nnc2c1C(F)(F)F)Oc1ccc(F)cc1F` [Example 16, 3-(Cyclopropylmethyl)-7-(2-(2,4-difluorophenoxy)-2-methylpropoxy)-8-(trifluoromethyl)-[1,2,4]triazolo[4,3-a]pyridine], the EC50 worked out at 15 nM.

On to `N#C[C@]1(c2ccc(F)cc2)CC[C@H](Oc2ccn3c(CC4CC4)nnc3c2C(F)(F)F)CC1` [Example 17, (1s,4s)-4-(3-(Cyclopropylmethyl)-8-(trifluoromethyl)-[1,2,4]triazolo[4,3-a]pyridin-7-yloxy)-1-(4-fluorophenyl)cyclohexanecarbonitrile], for which the EC50 was 1.4 nM.

As for `CCOCc1nnc2c(C(F)(F)F)c(OCC(C)(C)Oc3ccc(Cl)cc3)ccn12` [Example 18, 7-(2-(4-Chlorophenoxy)-2-methylpropoxy)-3-(ethoxymethyl)-8-(trifluoromethyl)-[1,2,4]triazolo[4,3-a]pyridine], the concentration giving a half-maximal response (EC50) turned out to be 5.9 nM.

Consider `CO[C@]1(c2ccc(F)cc2)CC[C@H](Oc2ccn3c(CC4CC4)nnc3c2C(F)(F)F)CC1` [Example 19, 3-(Cyclopropylmethyl)-7-((1s,4s)-4-(4-fluorophenyl)-4-methoxycyclohexyloxy)-8-(trifluoromethyl)-[1,2,4]triazolo[4,3-a]pyridine], for which the EC50 stood at 0.3 nM.

Consider `FC(F)(F)c1c(O[C@H]2CC[C@H](c3ccccc3)CC2)ccn2c(CC3CC3)nnc12` [Example 20, 3-(Cyclopropylmethyl)-7-((1r,4r)-4-phenylcyclohexyloxy)-8-(trifluoromethyl)-[1,2,4]triazolo[4,3-a]pyridine], for which the EC50 amounted to 0.4 nM.

With `CC(C)(COc1ccn2c(COCC(F)(F)F)nnc2c1C(F)(F)F)Oc1ccc(Cl)cc1` [Example 22, 7-(2-(4-Chlorophenoxy)-2-methylpropoxy)-3-((2,2,2-trifluoroethoxy)methyl)-8-(trifluoromethyl)-[1,2,4]triazolo[4,3-a]pyridine, TFA salt], the EC50 turned out to be 4.9 nM.

As for `COCc1nnc2c(C(F)(F)F)c(OCC(C)(C)Oc3ccc(Cl)cc3)ccn12` [Example 23, 7-(2-(4-Chlorophenoxy)-2-methylpropoxy)-3-(methoxymethyl)-8-(trifluoromethyl)-[1,2,4]triazolo[4,3-a]pyridine, TFA salt], the EC50 is 120 nM.

As to `O[C@]1(c2ccc(F)c(F)c2)CC[C@H](Oc2ccn3c(CC4CC4)nnc3c2C(F)(F)F)CC1` [Example 26, (1s,4s)-4-(3-(Cyclopropylmethyl)-8-(trifluoromethyl)-[1,2,4]triazolo[4,3-a]pyridin-7-yloxy)-1-(3,4-difluorophenyl)cyclohexanol, TFA salt], the half-maximal effective concentration (EC50) was 0.8 nM.

As to `FC(F)(F)COCc1nnc2c(C(F)(F)F)c(O[C@H]3CC[C@H](c4ccccc4)CC3)ccn12` [Example 27, 7-((1r,4r)-4-Phenylcyclohexyloxy)-3-((2,2,2-trifluoroethoxy)methyl)-8-(trifluoromethyl)-[1,2,4]triazolo[4,3-a]pyridine], the EC50 stood at 0.6 nM.

As to `CO[C@]1(c2ccc(F)c(F)c2)CC[C@H](Oc2ccn3c(CC4CC4)nnc3c2C(F)(F)F)CC1` [Example 28, 3-(Cyclopropylmethyl)-7-((1s,4s)-4-(3,4-difluorophenyl)-4-methoxycyclohexyloxy)-8-(trifluoromethyl)-[1,2,4]triazolo[4,3-a]pyridine], the EC50 was 0.7 nM.

Take `FC(F)(F)c1c(OCC2(c3ccc(Cl)cc3)CC2)ccn2c(CC3CC3)nnc12` [Example 29, 7-((1-(4-Chlorophenyl)cyclopropyl)methoxy)-3-(cyclopropylmethyl)-8-(trifluoromethyl)-[1,2,4]triazolo[4,3-a]pyridine]: the concentration giving a half-maximal response (EC50) stood at 13 nM.

Regarding `Fc1ccc(C2(COc3ccn4c(CC5CC5)nnc4c3C(F)(F)F)CC2)cc1` [Example 30, 3-(Cyclopropylmethyl)-7-((1-(4-fluorophenyl)cyclopropyl)methoxy)-8-(trifluoromethyl)-[1,2,4]triazolo[4,3-a]pyridine], the EC50 turned out to be 16 nM.

As to `FC(F)(F)c1c(OC[C@@H]2C[C@H]2c2ccc(Cl)cc2)ccn2c(CC3CC3)nnc12` [Example 33, 7-(((1R,2R)-2-(4-Chlorophenyl)cyclopropyl)methoxy)-3-(cyclopropylmethyl)-8-(trifluoromethyl)-[1,2,4]triazolo[4,3-a]pyridine], the EC50 came out at 4 nM.

Consider `FC(F)(F)c1c(OC[C@H]2C[C@@H]2c2ccc(Cl)cc2)ccn2c(CC3CC3)nnc12` [Example 34, 7-(((1S,2S)-2-(4-Chlorophenyl)cyclopropyl)methoxy)-3-(cyclopropylmethyl)-8-(trifluoromethyl)-[1,2,4]triazolo[4,3-a]pyridine], for which the EC50 worked out at 1.6 nM.

Take `N#C[C@]1(c2cccc(F)c2)C[C@H](Oc2ccn3c(CC4CC4)nnc3c2C(F)(F)F)C1` [Example 46, (1s,3s)-3-(3-(Cyclopropylmethyl)-8-(trifluoromethyl)-[1,2,4]triazolo[4,3-a]pyridin-7-yloxy)-1-(3-fluorophenyl)cyclobutanecarbonitrile]: the EC50 was 0.5 nM.

Turning to `N#C[C@]1(c2ccc(F)cc2)C[C@H](Oc2ccn3c(CC4CC4)nnc3c2C(F)(F)F)C1` [Example 50, (1s,3s)-3-(3-(Cyclopropylmethyl)-8-(trifluoromethyl)-[1,2,4]triazolo[4,3-a]pyridin-7-yloxy)-1-(4-fluorophenyl)cyclobutanecarbonitrile], the EC50 is 2.7 nM.

For `Fc1ccc(C2(COc3ccn4c(CC5CC5)nnc4c3C(F)(F)F)CC2)c(F)c1` [Example 51, 3-(Cyclopropylmethyl)-7-((1-(2,4-difluorophenyl)cyclopropyl)methoxy)-8-(trifluoromethyl)-[1,2,4]triazolo[4,3-a]pyridine], the EC50 came out at 43 nM.
